Measurements taken from patent publication US11236046B2, “Substituted heterocyclic sulfonamide compounds useful as TRPA1 modulators” (Genentech, Inc., priority 2013, dated 2022).

Target: human TRPA1 (Homo sapiens (Human), UniProt O75762)
Assay: FLIPR Tetra calcium influx assay, block of cinnamaldehyde-induced calcium influx in CHO cells expressing TRPA1 (human)
Format: cell-based
Conditions: 20 min compound incubation, 75 uM cinnamaldehyde (~EC80), Hill coefficient fixed to 1.5, read-out: hTRPA1 AUC IC50
Experimental: IC50 Determinations of Exemplified Compounds.
IC50s (effective concentration) of compounds on the human and rat TRPA1 channels were determined using a FLIPR Tetra instrument. CHO cells expressing TRPA1 were plated into 384-well plates, incubated overnight at 37C, and loaded with BD calcium indicator dye for 1 hr at 37° C. followed by 15 minutes. at room temperature. The assay buffer was Hank's Balanced Salt Solution (HBSS) containing 20 mM HEPES (pH readjusted to 7.4) along with 0.02% BSA.
Following dye load and plate cool down, compounds were added to the cells using FLIPR Tetra. Plates were then incubated with compounds for 20 minutes at room temperature prior to adding agonist. Following this incubation, ˜EC80 concentration of cinnamaldehyde (75 uM for human TRPA1 and 45 uM for rat TRPA1) was added to active the channels and block of cinnamaldehyde induced calcium influx was measured.
Fixing the Hill coefficient will generally reduce variability of the IC50 determination. The IC50s were individually examined to make sure the MIN and MAX points were set correctly prior to validation of the results.

human TRPA1, sequence (O75762 whole entry): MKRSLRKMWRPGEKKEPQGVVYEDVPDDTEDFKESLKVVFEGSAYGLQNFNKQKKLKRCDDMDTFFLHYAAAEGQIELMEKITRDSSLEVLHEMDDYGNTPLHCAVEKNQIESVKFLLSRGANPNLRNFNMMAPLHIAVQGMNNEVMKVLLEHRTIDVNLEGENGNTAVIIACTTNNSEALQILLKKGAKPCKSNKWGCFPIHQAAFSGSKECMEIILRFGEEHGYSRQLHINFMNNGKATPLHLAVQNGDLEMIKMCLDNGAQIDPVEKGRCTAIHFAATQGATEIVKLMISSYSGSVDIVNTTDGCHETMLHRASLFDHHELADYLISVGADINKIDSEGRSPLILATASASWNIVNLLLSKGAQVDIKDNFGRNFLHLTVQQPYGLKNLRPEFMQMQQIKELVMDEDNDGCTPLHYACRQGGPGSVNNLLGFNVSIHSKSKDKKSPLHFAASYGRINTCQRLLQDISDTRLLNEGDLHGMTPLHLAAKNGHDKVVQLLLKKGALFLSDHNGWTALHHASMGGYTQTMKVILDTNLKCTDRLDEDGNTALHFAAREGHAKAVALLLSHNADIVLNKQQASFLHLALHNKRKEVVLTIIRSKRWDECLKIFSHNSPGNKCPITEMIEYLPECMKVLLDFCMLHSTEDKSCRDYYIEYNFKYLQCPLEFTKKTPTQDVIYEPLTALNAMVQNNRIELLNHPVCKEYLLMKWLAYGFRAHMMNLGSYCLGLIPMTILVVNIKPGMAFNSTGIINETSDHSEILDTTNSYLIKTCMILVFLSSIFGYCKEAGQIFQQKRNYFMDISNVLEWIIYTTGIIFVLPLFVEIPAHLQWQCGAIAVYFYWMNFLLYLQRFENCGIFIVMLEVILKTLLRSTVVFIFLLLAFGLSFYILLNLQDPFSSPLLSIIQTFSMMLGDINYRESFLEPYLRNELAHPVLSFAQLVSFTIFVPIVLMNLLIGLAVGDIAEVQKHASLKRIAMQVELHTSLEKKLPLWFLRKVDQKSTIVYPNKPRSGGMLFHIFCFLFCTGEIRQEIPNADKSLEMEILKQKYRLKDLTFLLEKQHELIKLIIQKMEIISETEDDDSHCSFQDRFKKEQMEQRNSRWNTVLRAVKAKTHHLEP

IC50 [nM]	Structure (SMILES)
14	COc1nn(-c2cnc(C(F)(F)F)cn2)cc1CNC(=O)[C@@H]1C[C@@H](F)CN1S(=O)(=O)c1ccc(F)cc1 [Example 58, (2S,4R)-4-fluoro-1-(4-fluorophenyl)sulfonyl-N-[[3-methoxy-1-[5-(trifluoromethyl)pyrazin-2-yl]pyrazol-4-yl]methyl]pyrrolidine-2-carboxamide]
333	C[C@@H]1C[C@@H](C(=O)NCc2cc(-c3ccc(C(F)(F)F)nc3)ncn2)N1S(=O)(=O)c1ccc(F)cc1 [Example 200, (2S,4R)-1-[(4-fluorobenzene)sulfonyl]-4-methyl-N-([6-[6-(trifluoromethyl)pyridin-3-yl]pyrimidin-4-yl]methyl)azetidine-2-carboxamide]
10	O=C(NCc1cc(-c2cnc(C(F)(F)F)nc2)ncc1Cl)[C@@H]1C[C@@H](F)CN1S(=O)(=O)c1ccc(F)cc1 [Example 184, (2S,4R)—N-([5-chloro-2-[2-(trifluoromethyl)pyrimidin-5-yl]pyridin-4-yl]methyl)-4-fluoro-1-[(4-fluorobenzene)sulfonyl]pyrrolidine-2-carboxamide]
161	O=C(NCc1cn(-c2ccc(C(F)(F)F)nc2)nc1C1CC1)[C@@H]1C[C@@H](F)CN1S(=O)(=O)c1ccc(F)cc1 [Example 151, (2S,4R)—N-([3-cyclopropyl-1-[6-(trifluoromethyl)pyridin-3-yl]-1H-pyrazol-4-yl]methyl)-4-fluoro-1-[(4-fluorobenzene)sulfonyl]pyrrolidine-2-carboxamide]
7	O=C(NCc1cc(-c2ccc(C(F)(F)F)cn2)ccn1)[C@@H]1[C@@H](F)CCN1S(=O)(=O)c1ccc(F)cc1 [Example 72, (2R,3S)-3-fluoro-1-(4-fluorophenyl)sulfonyl-N-[[4-[5-(trifluoromethyl)-2-pyridyl]-2-pyridyl]methyl]pyrrolidine-2-carboxamide]
87	O=C(NCc1cc(-c2ccc3c(c2)OC(F)(F)O3)ncn1)[C@@H]1C[C@@H](F)CN1S(=O)(=O)c1ccc(F)cc1 [Example 92, (2S,4R)—N-[[6-(2,2-difluoro-2H-1,3-benzodioxol-5-yl)pyrimidin-4-yl]methyl]-4-fluoro-1-[(4-fluorobenzene)sulfonyl]pyrrolidine-2-carboxamide]
11	O=C(NCc1cc(-c2ccc(C(F)(F)F)cn2)ccc1F)[C@@H]1C[C@@H](F)CN1S(=O)(=O)c1ccc(F)cc1 [Example 162, (2S,4R)-4-fluoro-N-(2-fluoro-5-(5-(trifluoromethyl)pyridin-2-yl)benzyl)-1-((4-fluorophenyl)sulfonyl)pyrrolidine-2-carboxamide]
4	O=C(NCc1cc(-c2cnc(C(F)(F)F)nc2)ccc1Cl)[C@@H]1C[C@@H](F)CN1S(=O)(=O)c1ccc(F)cc1 [Example 158, (2S,4R)—N-[[2-chloro-5-[2-(trifluoromethyl)pyrimidin-5-yl]phenyl]methyl]-4-fluoro-1-(4-fluorophenyl)sulfonyl-pyrrolidine-2-carboxamide]
26	O=C(NCc1cc(-c2ccc(C(F)(F)F)c(F)c2)ncn1)[C@@H]1C[C@@H](F)CN1S(=O)(=O)c1ccc(F)cc1 [Example 114, (2S,4R)-4-fluoro-N-([6-[3-fluoro-4-(trifluoromethyl)phenyl]pyrimidin-4-yl]methyl)-1-[(4-fluorobenzene)sulfonyl]pyrrolidine-2-carboxamide]
5	O=C(NCc1ccnc(-c2ccc(C(F)(F)F)cc2O)c1)[C@@H]1C[C@@H](F)CN1S(=O)(=O)c1ccc(F)cc1 [Example 57, (2S,4R)-4-fluoro-1-(4-fluorophenyl)sulfonyl-N-[[2-[2-hydroxy-4-(trifluoromethyl)phenyl]-4-pyridyl]methyl]pyrrolidine-2-carboxamide]
3	O=C(NCc1cc(-c2cnc(C(F)(F)F)nc2)ccc1F)[C@@H]1[C@H]2C[C@H]2CN1S(=O)(=O)c1ccc(F)cc1 [Example 183, (1S,2S,5R)—N-(2-fluoro-5-(2-(trifluoromethyl)pyrimidin-5-yl)benzyl)-3-((4-fluorophenyl)sulfonyl)-3-azabicyclo[3.1.0]hexane-2-carboxamide]
41	O=C(NCc1cc(-c2ccc(C(F)F)cc2)c(F)cn1)[C@@H]1C[C@@H](F)CN1S(=O)(=O)c1ccc(F)cc1 [Example 88, (2S,4R)—N-[[4-[4-(difluoromethyl)phenyl]-5-fluoro-2-pyridyl]methyl]-4-fluoro-1-(4-fluorophenyl)sulfonyl-pyrrolidine-2-carboxamide]
99	O=C(NCc1cc(N2CCC3(CC2)CC3)c(F)cn1)[C@@H]1C[C@@H](F)CN1S(=O)(=O)c1ccc(F)cc1 [Example 129, (2S,4R)—N-[[4-(6-azaspiro[2.5]octan-6-yl)-5-fluoro-2-pyridyl]methyl]-4-fluoro-1-(4-fluorophenyl)sulfonyl-pyrrolidine-2-carboxamide]
6	C[C@@]1(F)C[C@@H](C(=O)NCc2cc(-c3cnc(C(F)(F)F)nc3)ccc2F)N(S(=O)(=O)c2ccc(F)cc2)C1 [Example 187, (2S,4R)-4-fluoro-N-(2-fluoro-5-(2-(trifluoromethyl)pyrimidin-5-yl)benzyl)-1-((4-fluorophenyl)sulfonyl)-4-methylpyrrolidine-2-carboxamide]
15	O=C(NCc1cc(-c2ccc(C(F)(F)F)cc2)ncn1)[C@@H]1C[C@@H](F)CN1S(=O)(=O)c1ccc(F)cc1 [Example 143, (2S,4R)-4-fluoro-1-(4-fluorophenylsulfonyl)-N-((6-(4-(trifluoromethyl)phenyl)pyrimidin-4-yl)methyl)pyrrolidine-2-carboxamide]
11	O=C(NCc1cc(-c2cnc(C(F)(F)F)nc2)ccc1F)[C@@H]1C[C@@H](F)CN1S(=O)(=O)c1ccc(F)cc1 [Example 56, (2S,4R)-4-fluoro-N-(2-fluoro-5-(2-(trifluoromethyl)pyrimidin-5-yl)benzyl)-1-((4-fluorophenyl)sulfonyl)pyrrolidine-2-carboxamide]
29	O=C(NCc1cc(F)cc(-c2ccc(C(F)F)nc2)c1)[C@@H]1C[C@@H](F)CN1S(=O)(=O)c1ccc(F)cc1 [Example 94, (2S,4R)—N-[[3-[6-(difluoromethyl)-3-pyridyl]-5-fluoro-phenyl]methyl]-4-fluoro-1-(4-fluorophenyl)sulfonyl-pyrrolidine-2-carboxamide]
20	O=C(NCc1cc(-c2ccc(C(F)(F)F)nc2)c(F)cn1)[C@@H]1C[C@@H](F)CN1S(=O)(=O)c1ccc(F)cc1 [Example 140, (2S,4R)-4-fluoro-N-((5′-fluoro-6-(trifluoromethyl)-3,4′-bipyridin-2′-yl)methyl)-1-(4-fluorophenylsulfonyl)pyrrolidine-2-carboxamide]
7	O=C(NCc1cc(F)cc(-c2cnc(C(F)(F)F)nc2)c1)[C@@H]1[C@@H](F)CCN1S(=O)(=O)c1ccc(F)cc1 [Example 68, (2R,3S)-3-fluoro-1-(4-fluorophenyl)sulfonyl-N-[[3-fluoro-5-[2-(trifluoromethyl)pyrimidin-5-yl]phenyl]methyl]pyrrolidine-2-carboxamide]
32	N#Cc1ccc(-c2cnc(C(F)(F)F)nc2)cc1CNC(=O)[C@@H]1C[C@@H](F)CN1S(=O)(=O)c1ccc(F)cc1 [Example 164, (2S,4R)—N-(2-cyano-5-(2-(trifluoromethyl)pyrimidin-5-yl)benzyl)-4-fluoro-1-((4-fluorophenyl)sulfonyl)pyrrolidine-2-carboxamide]
155	O=C(NCc1cc(-c2cnc(C(F)(F)F)nc2)ncc1F)C1C2CC(CC2F)N1S(=O)(=O)c1ccc(F)cc1 (centres unmarked) [Example 185, 5-fluoro-N-((5-fluoro-2-(2-(trifluoromethyl)pyrimidin-5-yl)pyridin-4-yl)methyl)-2-(4-fluorophenylsulfonyl)-2-aza-bicyclo[2.2.1]heptane-3-carboxamide]
113	O=C(NCc1cc(-c2ccc(C(F)(F)F)nc2)ncn1)[C@@H]1C[C@]2(CN1S(=O)(=O)c1ccc(F)cc1)CC2(F)F (single isomer, unassigned) [Example 124]
165	COc1nn(-c2ccc(C(F)(F)F)cc2)cc1CNC(=O)[C@@H]1C[C@@H](C#N)CN1S(=O)(=O)c1ccc(F)cc1 [Example 110, (2S,4R)-4-cyano-1-[(4-fluorobenzene)sulfonyl]-N-([3-methoxy-1-[4-(trifluoromethyl)phenyl]-1H-pyrazol-4-yl]methyl)pyrrolidine-2-carboxamide]
256	COc1cnc(CNC(=O)[C@@H]2C[C@@H](F)CN2S(=O)(=O)c2ccc(F)cc2)cc1-c1ccc(C(F)(F)F)nc1 [Example 108, (2S,4R)-4-fluoro-1-[(4-fluorobenzene)sulfonyl]-N-([5-methoxy-4-[6-(trifluoromethyl)pyridin-3-yl]pyridin-2-yl]methyl)pyrrolidine-2-carboxamide]
34	O=C(NCc1cc([C@H]2CC[C@H](C(F)(F)F)CC2)ncn1)[C@@H]1C[C@@H](F)CN1S(=O)(=O)c1ccc(F)cc1 (single isomer, unassigned) [Example 149]
5	O=C(NCc1cc(-c2ccc(C(F)(F)F)cc2)ccc1F)[C@@H]1C[C@@H](F)CN1S(=O)(=O)c1ccc(F)cc1 [Example 177, (2S,4R)-4-fluoro-N-((4-fluoro-4′-(trifluoromethyl)-[1,1′-biphenyl]-3-yl)methyl)-1-((4-fluorophenyl)sulfonyl)pyrrolidine-2-carboxamide]
